What all share (type): in vivo
Series [1] has as its system barnyard grass (Echinochloa crus-galli Beauv.). The experiment in a line: Test Example 1: herbicidal effect on paddy field weeds before emergence. The following applies: Dosage 5 kg/ha. In short, it runs like this: (§1)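 Seeds of both weeds, still ungerminated, in soil pots held under paddy conditions received a set dose of test solution as soil treatment. After twenty-one days, control relative to untreated pots was calculated and rated on a scoring scale.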

Series [2] concerns bulrush (Scirpus juncoides Roxb.). The series is described as above. The following applies: Dosage 5 kg/ha. The procedure, abridged: as §1
In series [3] the test system is barnyard grass (Echinochloa crus-galli Beauv.). The experiment in a line: Test Example 2: herbicidal effect on paddy field weeds after emergence. To be noted: Dosage 5 kg/ha; one-leaved stage; 21 days after treatment. The procedure, abridged: (§2)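 Weeds were sown in 1/10000 are pots of soil flooded to paddy conditions and grown to the one-leaf stage, then the soil was treated with a solution of compound at a predetermined dosage.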

Series [4] has as its system bulrush (Scirpus juncoides Roxb.). Described as above. To be noted: Dosage 5 kg/ha; one-leaved stage; 21 days after treatment. In short, it runs like this: as §2
Series [5] concerns monochoria (Monochoria vaginalis Presl). Described as above. To be noted: Dosage 5 kg/ha; one-leaved stage; 21 days after treatment. In short, it runs like this: as §2
Series [6] concerns barnyard grass (Echinochloa crus-galli Beauv.), Ec. Briefly: Test Example 3: herbicidal effect on upland weeds before emergence. The following applies: dosage 5 kg/ha. The procedure, abridged:
(§3)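 Pre-emergence spray of liquid prep, compound at set concentration; read at 14 d post-treatment; weed-kill rate calculated, effect graded.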

Series [7] relates to bird's eye speedwell (Veronica persica Poir.), Vp. Described as above. To be noted: dosage 5 kg/ha. The procedure, abridged:
as §3

Series [8] deals with cleavers (Galium aparine L.), Ga. Described as above. To be noted: dosage 5 kg/ha. The procedure, abridged:
as §3

Series [9] relates to cocklebur (Xanthium strumarium L.), Xs. Described as above. To be noted: dosage 5 kg/ha. The procedure, abridged: as §3
The subject of series [10] is forxtail grass (Alopecurus aequalis var. amurensis Ohwi), Am. The description is as above. The following applies: foxtail grass, dosage 5 kg/ha. In short, it runs like this: as §3
Series [11] relates to velvetleaf (Abutilon theophtasti L.), At. Described as above. To be noted: dosage 5 kg/ha. The procedure, abridged: as §3
The subject of the next series is soybean plant (So). Briefly: Test Example 3: phytotoxicity to upland crop plants, treatment before emergence. To be noted: dosage 5 kg/ha. The procedure, abridged:
(§4)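 Pre-emergence spray, test compound at prescribed conc. in liquid formulation; crop injury (soybean, wheat) read at day 14, scored by criterion.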

Another series relates to wheat (Wh). The description is as above. The following applies: dosage 5 kg/ha. The procedure, abridged: as §4
Series [12] concerns barnyard grass (Echinochloa crus-galli Beauv.), Ec. The experiment in a line: Test Example 4: herbicidal effect on upland weeds after emergence. To be noted: dosage 5 kg/ha; sprayed after emergence; judged 14 days after treatment. In short, it runs like this: (§5)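 Post-emergence foliar spray, compound at prescribed concentration, applied at defined leaf stages; weeds plus soybean/wheat grown in soil vats. Read-out: weed-killing rate and crop injury, 14 d post-treatment.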

For series [13], the system named is bird's eye speedwell (Veronica persica Poir.), Vp. Described as above. To be noted: dosage 5 kg/ha; sprayed after emergence; judged 14 days after treatment. In short, it runs like this:
as §5

The test system of series [14] is cleavers (Galium aparine L.), Ga. Described as above. The following applies: dosage 5 kg/ha; sprayed after emergence; judged 14 days after treatment. The procedure, abridged: as §5
The test system of series [15] is cocklebur (Xanthium strumarium L.), Xs. Described as above. The following applies: dosage 5 kg/ha; sprayed after emergence; judged 14 days after treatment. In short, it runs like this: as §5
The test system of series [16] is forxtail grass (Alopecurus aequalis var. amurensis Ohwi), Am. The series is described as above. To be noted: dosage 5 kg/ha; sprayed after emergence; judged 14 days after treatment. The procedure, abridged:
as §5

Series [17] relates to velvetleaf (Abutilon theophtasti L.), At. The series is described as above. The following applies: dosage 5 kg/ha; sprayed after emergence; judged 14 days after treatment. In short, it runs like this: as §5
The test system of another series is soybean plant. The experiment in a line: Test Example 4: phytotoxicity to upland crop plants, treatment after emergence. To be noted: dosage 5 kg/ha, sprayed after emergence, judged 14 days after treatment. The procedure, abridged: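 Seeds sown in soil and covered. Plants raised to specified leaf stages. Agent with test compound at a prescribed concentration sprayed. Herbicidal effect and crop damage scored after 14 days as weed-killing rate.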

Another series relates to wheat. Described as above. The following applies: dosage 5 kg/ha, sprayed after emergence, judged 14 days after treatment. In short, it runs like this:
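Weeds, soybean and wheat were sown in soil-filled vats, covered with soil and grown to set leaf stages before a post-emergence spray of an agent containing the compound at a prescribed concentration. Weed-killing rate and crop phytotoxicity were assessed 14 days after treatment.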

Structures are written as SMILES.

`CCCNC(=O)c1nc2c(cc1C(=O)Nc1c(CC)ccc(Cl)c1CC)CCO2` [compound 919]: the “Pre-emergence treatment Barnyard grass (herbicidal effect)” value (“Pre-emergence treatment Barnyard grass” for short) in series [1] is reported as 5 (Weed-killing rate is 100%.). Also, in series [2], the “Pre-emergence treatment Bulrush (herbicidal effect)” value (from here on “Pre-emergence treatment Bulrush”) is reported as 5 (Weed-killing rate is 100%.). Besides, the “Post-emergence treatment Barnyard grass (herbicidal effect)” value (shortened to “Post-emergence treatment Barnyard grass”) in series [3] is 5 (Weed-killing rate is 100%.). Also, the “Post-emergence treatment Bulrush (herbicidal effect)” value (“Post-emergence treatment Bulrush” below) in series [4] is reported as 5 (Weed-killing rate is 100%.). The “Post-emergence treatment Monochoria (herbicidal effect)” value (shortened to “Post-emergence treatment Monochoria”) in [5] is 5 (Weed-killing rate is 100%.). Moreover, the “Herbicidal effect Ec” value in series [6] and in series [12] was 5 (Weed-killing rate is 100%.) in each case. In addition, the “Herbicidal effect Vp” value in series [7] and in series [13] was 5 (Weed-killing rate is 100%.) in each case. In addition, the “Herbicidal effect Ga” value in [8] and in [14] was 5 (Weed-killing rate is 100%.) throughout. Moreover, the “Herbicidal effect Xs” value in series [9] and in [15] was 5 (Weed-killing rate is 100%.) in each case. In addition, the “Herbicidal effect Am” value in series [10] and in series [16] was 5 (Weed-killing rate is 100%.) in each case. The “Herbicidal effect At” value in [11] and in series [17] was 5 (Weed-killing rate is 100%.) throughout. For the same molecule, the “Phytotoxicity So” value in the series on soybean plant (So) and with soybean plant was 5 (Crop-killing rate is 100%.) each time. For the same molecule, the “Phytotoxicity Wh” value with wheat (Wh) and in the series with wheat was 5 (Crop-killing rate is 100%.) throughout.

As for `CCCNC(=O)c1nc2onc(C)c2cc1C(=O)Nc1c(CC)ccc(Cl)c1CC` [compound 1064], the “Pre-emergence treatment Barnyard grass” value in series [1] is listed as 5 (Weed-killing rate is 100%.). For the same molecule, in series [2], the “Pre-emergence treatment Bulrush” value is given as 5 (Weed-killing rate is 100%.). Further, the “Post-emergence treatment Barnyard grass” value in series [3] is given as 5 (Weed-killing rate is 100%.). The “Post-emergence treatment Bulrush” value in [4] is recorded as 5 (Weed-killing rate is 100%.). In addition, the “Post-emergence treatment Monochoria” value in [5] was 5 (Weed-killing rate is 100%.). In addition, the “Herbicidal effect Ec” value in [6] and in series [12] was 5 (Weed-killing rate is 100%.) in each case. The “Herbicidal effect Vp” value in [7] and in [13] was 5 (Weed-killing rate is 100%.) each time. For the same molecule, the “Herbicidal effect Ga” value in series [8] and in series [14] was 5 (Weed-killing rate is 100%.) in each case. Moreover, the “Herbicidal effect Xs” value in series [9] and in [15] was 5 (Weed-killing rate is 100%.) in each case. Besides, the “Herbicidal effect Am” value in [10] and in series [16] was 5 (Weed-killing rate is 100%.) each time. For the same molecule, the “Herbicidal effect At” value in series [11] and in [17] was 5 (Weed-killing rate is 100%.) each time. Besides, the “Phytotoxicity So” value with soybean plant (So) and with soybean plant was 4 (Crop-killing rate is 90-99%.) each time. Besides, the “Phytotoxicity Wh” value in the series with wheat (Wh) and in the series with wheat was 5 (Crop-killing rate is 100%.) in each case.

On to `Cc1c(Cl)cccc1NC(=O)c1cc2c(C)noc2nc1C(=O)NC1CCCC1` [compound 1085], for which the “Pre-emergence treatment Barnyard grass” value in series [1] is 5 (Weed-killing rate is 100%.). For the same molecule, the “Pre-emergence treatment Bulrush” value in [2] is recorded as 5 (Weed-killing rate is 100%.). For the same molecule, the “Post-emergence treatment Barnyard grass” value in series [3] is reported as 5 (Weed-killing rate is 100%.). Besides, the “Post-emergence treatment Bulrush” value in series [4] is 5 (Weed-killing rate is 100%.). Moreover, the “Post-emergence treatment Monochoria” value in [5] was 5 (Weed-killing rate is 100%.). Besides, the “Herbicidal effect Ec” value in series [6] and in [12] was 5 (Weed-killing rate is 100%.) throughout. Besides, the “Herbicidal effect Vp” value in [7] and in series [13] was 5 (Weed-killing rate is 100%.) throughout. Further, the “Herbicidal effect Ga” value is listed as 5 (Weed-killing rate is 100%.) in series [8] and 4 (Weed-killing rate is 90-99%.) in series [14]. The “Herbicidal effect Xs” value in series [9] and in [15] was 5 (Weed-killing rate is 100%.) in each case. Besides, the “Herbicidal effect Am” value in [10] and in series [16] was 5 (Weed-killing rate is 100%.) in each case. In addition, the “Herbicidal effect At” value in series [11] and in [17] was 5 (Weed-killing rate is 100%.) each time. Moreover, the “Phytotoxicity So” value in the series with soybean plant (So) and in the series on soybean plant was 4 (Crop-killing rate is 90-99%.) each time. Further, the “Phytotoxicity Wh” value in the series with wheat (Wh) and in the series with wheat was 5 (Crop-killing rate is 100%.) throughout.

Consider `CCNC(=O)c1nc2c(cnn2C)cc1C(=O)Nc1c(CC)ccc(Cl)c1CC` [compound 1087], for which the “Pre-emergence treatment Barnyard grass” value in series [1] is 5 (Weed-killing rate is 100%.). Moreover, the “Pre-emergence treatment Bulrush” value in series [2] is listed as 5 (Weed-killing rate is 100%.). Besides, the “Post-emergence treatment Barnyard grass” value in [3] was 5 (Weed-killing rate is 100%.). Further, in series [4], the “Post-emergence treatment Bulrush” value was 5 (Weed-killing rate is 100%.). Further, in series [5], the “Post-emergence treatment Monochoria” value is on record as 5 (Weed-killing rate is 100%.). The “Herbicidal effect Ec” value in series [6] and in series [12] was 5 (Weed-killing rate is 100%.) in each case. Further, the “Herbicidal effect Vp” value in series [7] and in series [13] was 5 (Weed-killing rate is 100%.) throughout. The “Herbicidal effect Ga” value in series [8] and in series [14] was 5 (Weed-killing rate is 100%.) in each case. Further, the “Herbicidal effect Xs” value in series [9] and in series [15] was 5 (Weed-killing rate is 100%.) each time. The “Herbicidal effect Am” value in [10] and in series [16] was 5 (Weed-killing rate is 100%.) throughout. For the same molecule, the “Herbicidal effect At” value in series [11] and in series [17] was 5 (Weed-killing rate is 100%.) in each case. Moreover, the “Phytotoxicity So” value is recorded as 5 (Crop-killing rate is 100%.) in the series on soybean plant (So) and 4 (Crop-killing rate is 90-99%.) in the series on soybean plant. Besides, the “Phytotoxicity Wh” value with wheat (Wh) and in the series on wheat was 5 (Crop-killing rate is 100%.) in each case.

These data come from patent US6444617B1, “Fused-heterocycle dicarboxylic acid diamide derivatives or salts thereof, herbicide and usage thereof” (Nihon Nohyaku Co., Ltd., priority 1998, dated 2002).
